Assay results reported in EP4772520A1, “NOVEL PRODRUG-TYPE ANTICANCER AGENT TARGETING CANCER-SPECIFIC ENZYME ACTIVITY” (priority 2023, dated 2025).
Values joined by “and” are separate entries in the source; they are usually repeats but may differ in a detail not shown here. Equal values may be shown once.

Columns and labels:
[1] = Single dose toxicity test 2 (intravenous); type: in vivo, Jcl: ICR mice (female)
Protocol: Single dose toxicity was evaluated by intravenously administering the novel prodrug-type anticancer agents SN38-βGal and SN38-βGlcNAc to Jcl: ICR mice (female). […] 500 mg/kg of SN38-βGlcNAc was intravenously administered.

human AChE = target: T1, human AChE (Homo sapiens, UniProt P22303); experiment: Evaluation of inhibitory activity on acetylcholinesterase (AChE); type: biochemical
T1 construct: purchased AnaSpec, Inc
T1 sequence (P22303 32-614): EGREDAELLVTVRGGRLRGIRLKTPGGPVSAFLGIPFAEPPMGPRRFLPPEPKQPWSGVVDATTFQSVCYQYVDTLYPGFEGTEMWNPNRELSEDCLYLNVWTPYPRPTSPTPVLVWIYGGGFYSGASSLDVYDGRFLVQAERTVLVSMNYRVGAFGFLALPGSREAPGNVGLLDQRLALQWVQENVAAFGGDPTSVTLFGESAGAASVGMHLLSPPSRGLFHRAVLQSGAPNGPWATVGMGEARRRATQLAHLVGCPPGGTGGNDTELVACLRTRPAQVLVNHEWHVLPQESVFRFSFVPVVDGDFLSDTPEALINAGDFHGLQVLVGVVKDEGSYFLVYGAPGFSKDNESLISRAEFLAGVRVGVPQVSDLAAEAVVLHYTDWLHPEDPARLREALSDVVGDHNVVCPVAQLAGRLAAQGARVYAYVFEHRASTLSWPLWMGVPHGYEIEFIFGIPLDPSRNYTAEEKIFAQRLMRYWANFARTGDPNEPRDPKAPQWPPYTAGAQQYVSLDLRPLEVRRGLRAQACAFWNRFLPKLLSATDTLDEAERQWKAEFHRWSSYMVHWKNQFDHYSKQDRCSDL
Protocol: The procedure of the specific inhibition test is shown below. • (1) A test drug at each concentration was added to a 96 well plate, and acetylcholine, an AChE substrate, and an AChE purified enzyme were added according to a protocol, using SensoLyte (registered trademark) 520 Acetylcholine esterase Activity Assay Kit Fluorometric (AnaSpec, Inc.). Neostigmine bromide known as an AChE inhibitor was used as […]. • (2) The fluorescence value at 520 nm was measured, and the IC50 value was calculated.

[2] = test system: lung squamous carcinomas cell H226; experiment: Cytotoxicity test by MTT assay method (H226 cells); type: cell-based
[3] = Single dose toxicity test 1 (intravenous); type: in vivo, Jcl: ICR mice (female)
Protocol: Single dose toxicity was evaluated by intravenously administering 200 mg/kg each of the novel prodrug-type anticancer agents SN38-βGal and SN38-βGlcNAc to Jcl: ICR mice (female).

[4] = test system: luciferase-expressing A549 cells; experiment: Therapeutic experiment 2 in A549 lung cancer orthotopic transplantation model; type: in vivo, mice; conditions: i.v. 40 mg/kg 5 times then 80 mg/kg 7 times every other day
Protocol: Using SN38-βGal and SN38-βGlcNAc, the dose was increased to verify the therapeutic effect in the lung cancer orthotopic transplantation model. Whether the tumor suppression effect was confirmed was evaluated as compared with the Vehicle group (DMSO administration) by separating the SN38-βGal and SN38-βGlcNAc administration groups. The evaluation was performed on luciferase-expressing A549 cell […] mice using BALB/cAJcl-nu/nu with n = 3 for the Vehicle group, n = 4 for the SN38-βGal group, and n = 5 for the SN38-βGlcNAc group. The administration form was intravenous administration (i.v.).
For administration, 40 mg/kg was administered 5 times in total every other day, and then 80 mg/kg was administered 7 times in total every other day. The tumor burden was determined by evaluating the luciferin/luciferase chemiluminescence value. The endpoint was a significant body weight loss (20% loss).
A specific procedure of the therapeutic experiment is shown below. • (1) Model mice were created by the following operation using BALB/cAJcl-nu/nu (7 weeks old). The skin of the chest was incised, and the skin was subcutaneously detached, then luciferase-expressing A549 cells 2 × 10^7 cells/mL (50 µL, 5% Matrigel) was injected from the intercostal pleura to the left lung. After injection, the skin was sutured. • (2) After 1 week, the formation of cancer was confirmed by luciferin/luciferase chemiluminescence, and the intravenous administration of the drug was started. The drug was prepared by dissolving a 200 mM of DMSO stock in PBS, and administered in a total amount of 100 µL. 3 mg (200 µL) of luciferin was administered by intraperitoneal administration, and anesthetized with isoflurane. Thereafter, the chemiluminescent value at 20 minutes after administration was measured by an in vivo imaging device. • (3) On the day of evaluation, the tumor burden was evaluated by luciferin/luciferase chemiluminescence. • (4) After completion of the treatment, HMRef-βGlcNAc, 5 mg/kg (100 µL PBS) was administered by intravenous administration. 30 minutes after administration, the sternum was incised, and the lungs were taken out. • (5) The cancer lesion was fluorescently imaged by an in vivo fluorescence imaging device, and comparison between the Vehicle and the administration group was performed.

in vivo = experiment: in vivo
Text: A specific test procedure is shown below. • (1) Three marmosets (6 males in total) in each of the SN38-βGal and SN38-βGlcNAc administration groups were sequentially retained using a retention device, and a tail of the administration site was shaved. • (2) The base of the tail from the injection site was avascularized to cause blood vessels to become engorged. Veins running on both left and right sides of the tail were checked, the puncture site was disinfected with alcohol cotton, and then administration was performed with a 27 G injection needle using one of the left and right blood vessels. For administration, 1.0 mg/mL of prepared administration solution of SN38-βGal or SN38-βGlcNAc was intravenously administered at an injection rate of 350 µL/min (about 11 minutes: due to different body weight, the time τ actually required for the injection was accurately recorded for each individual) by an infusion pump at a dose of 10 mg/10 mL/kg. • (3) Immediately after the start of infusion administration, about 220 µL of blood was collected with a heparinized syringe at 5, 15, 30, 45 minutes, 1, 2, 3, and 6 hours, and centrifuged at 1200 G and 4°C for 15 minutes to collect plasma. • (4) After the plasma was dispensed into the microtube, 100 µL of the plasma was accurately taken, and a 200 µM of inhibitor N-(n-nonyl) deoxygalactonoijirimycin solution in the SN38-βGal administration group, a 200 µM of inhibitor PUGNAc solution in the SN38-βGlcNAc administration group, and 100 µL of each were added to the microtube dispensed in advance and mixed quickly.

[5] = Protocol: For the Vehicle group, a corresponding amount of DMSO was administered.
After blood was collected on day 22 and then euthanized, the liver, kidney, and spleen were taken out and their weights were compared.

[6] = mouse, in vivo, iv, single intravenous administration, estimated
[7] = 200 mg/kg single intravenous administration, n=10
[8] = prodrug, 10 mg/kg i.v., individual marmosets, 10 mg/kg
[9] = 40 mg/kg i.v. repeated, vs Vehicle

CCc1c2c(nc3ccc(O[C@@H]4O[C@H](CO)[C@H](O)[C@H](O)[C@H]4O)cc13)-c1cc3c(c(=O)n1C2)COC(=O)[C@]3(O)CC [SN38-βGal]
Survival rate (%) (after 14 days) ([1]; 200 mg/kg intravenous, n=10): 100% | Survival rate (%) (just after administration) ([1]; 200 mg/kg intravenous, n=10): 100% | symptoms immediately after administration ([1]; SN38-βGal 300 mg/kg, SN38-βGlcNAc 500 mg/kg intravenous, improved in several hours): reduced locomotor activity and prone states were found in more than half of the mice in both groups | LD50 at 336 h [1, 6]: ≥ 300 mg/kg | AChE inhibitory activity (human AChE; in the presence of 10 µM of each drug): did not inhibit AChE activity in this concentration range | IC50 (human AChE; read-out: IC50 value for AChE inhibition, 60 min value): 1560 µM | cytotoxicity in the presence of inhibitor ([2]; H226, inhibitor of β-galactosidase, N-(n-nonyl) deoxygalactonoijirimycin, 40 µM): cytotoxicity was significantly reduced | IC50 ([2]; Homo sapiens, NCI-H226, 72 h, read-out: IC50 value): 1.39 µM | symptoms immediately after administration ([3]; 200 mg/kg intravenous, improved in several hours): reduced locomotor activity, tremor, and prone states were found in more than half of the mice in both groups | Survival rate (%) (after 10 days) [3, 7]: 100% | Survival rate (%) (just after administration) [3, 7]: 100% | LD50 at 240 h [3, 6]: ≥ 200 mg/kg | body weight [4]: the body weight loss was not found in the first 2 weeks | tumor suppression effect (luciferin/luciferase chemiluminescence) ([4]; vs Vehicle): the tumor growth was significantly suppressed in all mice | abnormalities after drug administration (in vivo; 10 mg/kg i.v.): remarkable abnormalities, vomiting, and the like were not found in any individual | AUC(0-t) at 6 h (in vivo; marmoset, in vivo, iv, 10 mg/kg, AUC0-6h (μg・h/mL), prodrug, 11 min infusion, N=3, average): 52700 ng·h/mL | clearance (in vivo; marmoset, in vivo, iv, 10 mg/kg, CLtot (mL/min/kg), prodrug, 11 min infusion, N=3, average): 3.5 mL/min/kg | Vd (in vivo; marmoset, in vivo, iv, 10 mg/kg, Vd (L/kg), prodrug, 11 min infusion, N=3, average): 0.215 L/kg | Vd (in vivo; marmoset, in vivo, iv, 10 mg/kg, Vd (L/kg), prodrug, 10 mg/kg i.v., individual marmosets): 0.205 L/kg | half-life (in vivo; marmoset, in vivo, iv, 10 mg/kg, blood half-life, prodrug, 10 mg/kg i.v., 11 minutes infusion): 58.3 min | half-life (in vivo; marmoset, in vivo, iv, 10 mg/kg, t1/2 (h), prodrug, 11 min infusion, N=3, average): 58.3 min | half-life (in vivo; marmoset, in vivo, iv, 10 mg/kg, t1/2 (h), prodrug, 10 mg/kg i.v., individual marmosets): 49.9 min | CLtot (in vivo; [8]): 3.4 mL/min/kg and 2.2 mL/min/kg and 4.8 mL/min/kg | Vd (in vivo; [8]): 0.169 L/kg and 0.271 L/kg | t1/2 (in vivo; [8]): 58.7 min and 66.3 min | AUC0-6h (μg・h/mL) (in vivo; prodrug, 10 mg/kg i.v., individual marmosets, 10 mg/kg, 360 min): 48.57 μg・h/mL and 75.13 μg・h/mL and 34.47 μg・h/mL | Histological findings in kidney ([5]; 40 mg/kg i.v. repeated): organ damage to the kidney was not observed | Histological findings in large intestine ([5]; 40 mg/kg i.v. repeated): the side effects were very mild as compared with CPT-11 | Histological findings in liver ([5]; 40 mg/kg i.v. repeated): organ damage to the liver was not observed | Histological findings in small intestine ([5]; 40 mg/kg i.v. repeated): the side effects were very mild as compared with CPT-11 | Histological findings in spleen ([5]; 40 mg/kg i.v. repeated): organ damage to the spleen was very mild | histological findings (organ damage) ([5]; 40 mg/kg i.v. repeated, summary): no organ damage was observed in the small intestine, large intestine, kidney, liver, and spleen | biochemical test findings [5, 9]: a slight decrease in AST and ALT values was observed | blood cell test findings [5, 9]: a slight increase in eosinophils and a decrease in basophils were estimated | body weight loss ([5]; 40 mg/kg i.v. three times a week for three weeks, at maximum by the final day): significant body weight loss was not observed | RETICULOCYTE COUNT ([5]; blood cell classification, Average, 40 mg/kg i.v. repeated): 220300 µL⁻¹
